According to publication PMC3433420 (PLoS ONE, 2012):
Where two headings read alike, the source gives them in different places. Residues, ends and D or L forms follow the SMILES beside them.

Assays:
[1] = molecular target: GRB7 SH2 domain (Homo sapiens, UniProt Q14451); assay: FP saturation binding assay
[2] = molecular target: PIK3R2-NC tandem SH2 domains (Homo sapiens, UniProt O00459); assay: FP saturation binding assay
[3] = molecular target: T1, PLCG1-C SH2 domain (Homo sapiens, UniProt P19174); assay: biochemical; type: binding; conditions: protein PLCG1-C; high-confidence ErbB interactions; mean of replicate hits
T1 construct: The 6X His-tagged SH2 domain proteins used in the assay, PLCG1-C, SHC4, VAV2; thioredoxin; made in house; host or cells: E. coli BL21(DE3)pLysS
T1 sequence (P19174 668-756 limits assumed): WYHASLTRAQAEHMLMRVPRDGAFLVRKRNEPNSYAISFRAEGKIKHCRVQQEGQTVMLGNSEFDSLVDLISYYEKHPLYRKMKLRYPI

[4] = molecular target: SH2 and PTB domains; conditions: ref Kaushansky et al. Mol Biosys 2008, cited from earlier work
Source text: Supplement pone.0044471.s022.xlsx, sheet "Most recent PM interactions" | column: Kd || Supplement pone.0044471.s022.xlsx, sheet "All original PM interactions" | column: Kd

[5] = tested on: 93 human SH2 domains and 2 phosphotyrosine binding (PTB) domains; assay: FP saturation binding assay, whole domain panel (protein named per line or not at all)
Experimental: (See Figure 1A) Rhodamine-labeled peptides were dissolved in assay buffer (20 mM HEPES, 100 mM KCl, 0.1% Tween-20, 5 mM DTT, pH 7.8), diluted to a concentration of 20 nM, and plated into black 384-well plates (Corning, Corning, NY) at 5 µL/well using a Perkin Elmer EP3 pipetting workstation (V&P Scientific, Inc., San Diego, CA). SH2, PTB, and thioredoxin control proteins were plated into the first column of 2 mL 96-well plates (Corning) at a concentration of 20 µM and serially diluted 1∶2 into freezing buffer (300 mM NaCl, 50 mM Na2PO4, pH 8, 20% glycerol v/v) eleven times using a Tecan Freedom EVO 100 workstation (Tecan, Männedorf, Switzerland). For the interaction assay, 5 µL of each of the twelve protein concentrations was added to the peptide-containing 384-well plates via the EP3 resulting in a protein dilution range of 0.002–10 µM and a final volume of 10 µL; peptide concentration was fixed at 10 nM. Peptide/protein samples were incubated for 20 minutes at room temperature in the dark and fluorescence polarization (FP) was measured in an Analyst GT multimode reader (Molecular Devices, Sunnyvale, CA) with excitation and emission wavelengths of 530 nm and 555 nm, respectively. Experimental values were output as millipolarization (mP) units and imported into MATLAB (The MathWorks, Inc., Natick, MA) in which equation (1) was used to determine dissociation constants (KDs) for each protein/peptide pairing by least squares nonlinear regression. [drawing 1] (1)
To scale up the number of interaction measurements while minimizing variation introduced by human intervention, we utilized an automated robotic platform (Figure 1A; see experimental procedures and Supplementary Methods) to transfer, incubate, and measure the fluorescence polarization (FP) induced from interactions of a titration series of SH2 domains with synthetic rhodamine-labeled ErbB phosphopeptides. Experimental values were output as millipolarization (mP) units and equation (1) was used to fit apparent midpoint dissociation constants (KDs) for each protein/peptide pair using non-linear regression (see experimental procedures).
For this interaction analysis, we synthesized and queried the interaction of phosphopeptides corresponding to 89 of 92 ErbB family intracellular tyrosines with 93 SH2 domains. Because nine peptide sequences share 100% identity between the receptors in the 4 to 7 amino acids C-terminal to the phosphorylated tyrosine, our peptide set consisted of 81 phosphopeptides corresponding to the 89 unique tyrosine containing sequences (Table S2). This peptide set represents a 50% increase over the three PM studies performed to date. We were therefore able to obtain a more systematic and unbiased view of the relative SH2 domain recruitment potential of each receptor. Although most ErbB receptor auto-phosphorylation sites have been detected frequently by mass spectrometry because of their high relative modification stoichiometry, non-auto-phosphorylation sites have been reported less frequently in the literature (Table S3). We reasoned that many physiologically relevant and uncharacterized ErbB tyrosines of low phosphorylation stoichiometry may exist and that our comprehensive interaction analysis might implicate their importance in mediating physiological interactions. We tested the majority of interactions (7099/8160 (87.0%); Figure S3) three or more times and reported standard error for all interactions that were detected in at least three FP runs (Table S4). […] Analysis of this polarization data may be useful for inferring how SH2 proteins bind to different peptide sequences. Larger proteins and proteins binding closer to the N-terminal rhodamine tag of a given peptide would be expected to induce higher maximal polarization (the calculated maximal polarization value at infinite protein concentration) than proteins binding farther from the tag. In addition to phosphopeptides, we queried a representative set of 27 non-phosphopeptides against the entire domain set. […]

Sequence of GRB7 SH2 domain (Q14451 431-527 limits assumed): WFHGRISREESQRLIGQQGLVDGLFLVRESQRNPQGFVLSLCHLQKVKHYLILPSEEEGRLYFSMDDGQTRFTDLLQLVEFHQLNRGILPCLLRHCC
Sequence of PIK3R2-NC tandem SH2 domains (O00459 330-716 limits assumed): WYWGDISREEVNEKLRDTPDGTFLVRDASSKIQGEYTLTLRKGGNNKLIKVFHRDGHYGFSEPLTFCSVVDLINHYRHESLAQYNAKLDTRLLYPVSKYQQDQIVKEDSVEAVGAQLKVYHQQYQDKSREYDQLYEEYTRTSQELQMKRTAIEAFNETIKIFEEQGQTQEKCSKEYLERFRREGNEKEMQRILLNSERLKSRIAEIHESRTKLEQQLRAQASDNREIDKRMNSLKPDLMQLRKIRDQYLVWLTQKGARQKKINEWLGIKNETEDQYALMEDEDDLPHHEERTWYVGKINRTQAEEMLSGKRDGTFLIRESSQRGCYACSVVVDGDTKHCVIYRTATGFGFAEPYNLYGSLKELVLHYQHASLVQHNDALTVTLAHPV

With `CC(C)C[C@H](NC(=O)[C@H](Cc1ccc(OP(=O)(O)O)cc1)NC(=O)[C@H](CC(C)C)NC(=O)[C@@H]1CCCN1C(=O)[C@H](CCC(=O)O)NC(=O)[C@@H](N)CC(N)=O)C(=O)N[C@@H](CC(N)=O)C(=O)N[C@H](C(=O)N[C@@H](Cc1ccccc1)C(=O)N[C@@H](C)C(=O)N[C@@H](CC(N)=O)C(=O)N[C@H](C(=O)N[C@@H](CC(=O)O)C(=O)O)[C@@H](C)O)[C@@H](C)O` [ErbB4 1208 13-mer] (HELM PEPTIDE1{N.E.P.L.[O=C([C@H](Cc1ccc(OP(=O)(O)O)cc1)N[*:1])[*:2]].L.N.T.F.A.N.T.D}$$$$V2.0) as the compound, how does the Kd ([1]; Mean KD, protein GRB7, high-confidence ErbB interactions, mean of replicate hits) read?
Its Kd is 8.96 µM.

What about the Kd [2] of the same compound?
Its Kd is 11.3 µM.

And the Kd [3]?
Its Kd is 5.11 µM.

Which Kd ([4]; protein ABL2) does the source give for “IGSQpYLLNWCVQd [ErbB1 pY813, N-terminally rhodamine-labeled 13-mer phosphopeptide]” here?
The Kd was 200 nM.

What about the Kd ([4]; protein GRB10) of the same compound?
Its Kd is 350 nM.

What about the Kd ([4]; protein ITK) of the same compound?
The Kd was 310 nM.

And the Kd ([4]; protein NCK2)?
The Kd was 200 nM.

And the Kd ([4]; protein PIK3R1-C)?
Its Kd is 1850 nM.

And the Kd ([4]; protein PIK3R1-NC)?
The Kd was 1820 nM.

What about the Kd ([4]; protein PIK3R3-NC) of the same compound?
The Kd was 1870 nM.

What about the Kd ([4]; protein RASA1-C) of the same compound?
The Kd was 1950 nM.

And the Kd ([4]; protein RASA1-NC)?
The Kd was 160 nM.

And the Kd ([4]; protein SH2D1B)?
The Kd was 1600 nM.

And the Kd ([4]; protein SH2D3C)?
The Kd was 50 nM.

And the Kd ([4]; protein SHB)?
Its Kd is 280 nM.

And the Kd ([4]; protein SHE)?
The Kd was 1380 nM.

And the Kd ([4]; protein SHF)?
Its Kd is 1060 nM.

And the Kd ([4]; protein SRC)?
The Kd was 80 nM.

What about the Kd ([4]; protein SYK-NC) of the same compound?
The Kd was 240 nM.

What about the Kd ([4]; protein TENC1) of the same compound?
The Kd was 1150 nM.

And the Kd ([4]; protein TNS3)?
The Kd was 1890 nM.

What about the Kd ([4]; protein VAV1) of the same compound?
Its Kd is 370 nM.

What about the Kd ([4]; protein VAV2) of the same compound?
Its Kd is 470 nM.

What about the Kd ([4]; protein VAV3) of the same compound?
Its Kd is 960 nM.

And the Kd ([4]; protein YES1)?
Its Kd is 22 nM.

And the “interaction with the SH2/PTB domain panel” value ([5]; KD <= 20 µM counted as interaction)?
The value was “reproducibly interacted at high affinity with many SH2 domains”.

And the “SH2 domains found to interact” value ([5]; high-confidence interactions (Table S11, Figure S14))?
Its value is “interacted with tensin family SH2 domains”.

With `CSCC[C@H](NC(=O)[C@H](Cc1ccc(O)cc1)NC(=O)[C@H](CCC(=O)O)NC(=O)[C@H](Cc1ccc(OP(=O)(O)O)cc1)NC(=O)[C@H](CCC(=O)O)NC(=O)[C@H](CCC(=O)O)NC(=O)[C@H](CC(=O)O)NC(=O)[C@@H](N)CCC(=O)O)C(=O)N[C@@H](CC(N)=O)C(=O)N[C@@H](CCCNC(=N)N)C(=O)N[C@@H](CCCNC(=N)N)C(=O)N[C@@H](CCCNC(=N)N)C(=O)N[C@@H](CC(=O)O)C(=O)O` [ErbB3 pY1197] (HELM PEPTIDE1{E.D.E.E.[O=C([C@H](Cc1ccc(OP(=O)(O)O)cc1)N[*:1])[*:2]].E.Y.M.N.R.R.R.D}$$$$V2.0) as the compound, how does the Kd ([1]; KD for GRB7, FP saturation assay) read?
The Kd was ≤ 0.1 µM.
